Source: US7214690B2, “Tricyclic quinolinone and tricyclic quinoline androgen receptor modulator compounds and methods” (Ligand Pharmaceuticals Incorporated, priority 2001, dated 2007)
Like-named read-outs stand apart in the source and are kept apart here.

Assays:
human AR = molecular target: T1, human AR (Homo sapiens, UniProt P10275); test: co-transfection assay, hAR in CV-1 cells (MTV-LUC reporter); assay type: cell-based
T1 construct: expressed in transfected cells; host or cells: CV-1 cells (African green monkey kidney fibroblasts)
T1 sequence (P10275 1-920): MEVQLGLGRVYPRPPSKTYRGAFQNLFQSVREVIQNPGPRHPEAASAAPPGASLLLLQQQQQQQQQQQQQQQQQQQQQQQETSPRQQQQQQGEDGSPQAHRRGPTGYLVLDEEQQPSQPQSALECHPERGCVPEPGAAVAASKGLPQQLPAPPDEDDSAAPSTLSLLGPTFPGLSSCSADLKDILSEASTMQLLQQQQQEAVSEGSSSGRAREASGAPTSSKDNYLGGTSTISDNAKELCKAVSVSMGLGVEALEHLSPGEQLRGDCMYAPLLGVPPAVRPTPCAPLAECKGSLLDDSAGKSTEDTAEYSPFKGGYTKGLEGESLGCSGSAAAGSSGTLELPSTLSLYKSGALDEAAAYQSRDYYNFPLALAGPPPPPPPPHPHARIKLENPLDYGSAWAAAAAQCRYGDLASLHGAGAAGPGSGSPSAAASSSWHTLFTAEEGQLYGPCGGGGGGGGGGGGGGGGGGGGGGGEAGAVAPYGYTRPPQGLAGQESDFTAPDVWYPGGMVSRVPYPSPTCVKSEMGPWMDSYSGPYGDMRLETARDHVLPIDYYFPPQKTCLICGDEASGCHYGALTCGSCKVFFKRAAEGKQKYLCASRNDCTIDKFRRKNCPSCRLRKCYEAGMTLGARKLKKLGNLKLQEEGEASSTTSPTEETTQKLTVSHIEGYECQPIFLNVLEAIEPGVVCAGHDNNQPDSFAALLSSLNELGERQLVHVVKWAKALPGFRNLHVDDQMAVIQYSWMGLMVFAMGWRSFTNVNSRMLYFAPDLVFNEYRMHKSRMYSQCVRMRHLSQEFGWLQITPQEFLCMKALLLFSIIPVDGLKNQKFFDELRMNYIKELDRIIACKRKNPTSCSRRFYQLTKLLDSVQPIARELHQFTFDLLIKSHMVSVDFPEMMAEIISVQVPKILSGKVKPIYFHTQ
Source text: The co-transfection assay provides a method for identifying functional agonists and partial agonists that mimic, or antagonists that inhibit, the effect of native hormones and quantifying their activity for responsive IR proteins. In this regard, the co-transfection assay mimics an in vivo system in the laboratory. Importantly, activity in the co-transfection assay correlates very well with known in vivo activity, such that the co-transfection assay functions as a qualitative and quantitative predictor of a tested compounds in vivo pharmacology. , See e.g., T. Berger et al. 41 J. Steroid Biochem. Molec.
(§1) CV-1 cells (African green monkey kidney fibroblasts) were cultured in the presence of Dulbecco's Modified Eagle Medium (DMEM) supplemented with 10% charcoal resin-stripped fetal bovine serum (CH-FBS) then transferred to 96-well microtiter plates one day prior to transfection.
The reporter plasmid, MTV-LUC, contains the cDNA for firefly luciferase (LUC) under control of the mouse mammary tumor virus (MTV) long terminal repeat, a conditional promoter containing an androgen response element. See e.g., Berger et al. supra. In addition, pRS-β-Gal, coding for constitutive expression of E. coli β-galactosidase (β-Gal), was included as an internal control for evaluation of transfection efficiency and compound toxicity.
(§2) Three to four replicates were used for each sample.
(§3) After 40 hours, the cells were washed with PBS, lysed with a Triton X-100-based buffer and assayed for LUC and β-Gal activities using a luminometer or spectrophotometer, respectively. For each replicate, the normalized response (NR) was calculated as: LUC response/β-Gal rate • where β-Gal rate=β-Gal/β-Gal incubation time.

GR = molecular target: T2, GR (Homo sapiens, UniProt P04150); test: co-transfection assay, GR; assay type: cell-based
T2 construct: expressed in transfected cells; host or cells: background cell substantially devoid of endogenous IRs (CV-1 described for the co-transfection assay)
T2 sequence (P04150 1-777): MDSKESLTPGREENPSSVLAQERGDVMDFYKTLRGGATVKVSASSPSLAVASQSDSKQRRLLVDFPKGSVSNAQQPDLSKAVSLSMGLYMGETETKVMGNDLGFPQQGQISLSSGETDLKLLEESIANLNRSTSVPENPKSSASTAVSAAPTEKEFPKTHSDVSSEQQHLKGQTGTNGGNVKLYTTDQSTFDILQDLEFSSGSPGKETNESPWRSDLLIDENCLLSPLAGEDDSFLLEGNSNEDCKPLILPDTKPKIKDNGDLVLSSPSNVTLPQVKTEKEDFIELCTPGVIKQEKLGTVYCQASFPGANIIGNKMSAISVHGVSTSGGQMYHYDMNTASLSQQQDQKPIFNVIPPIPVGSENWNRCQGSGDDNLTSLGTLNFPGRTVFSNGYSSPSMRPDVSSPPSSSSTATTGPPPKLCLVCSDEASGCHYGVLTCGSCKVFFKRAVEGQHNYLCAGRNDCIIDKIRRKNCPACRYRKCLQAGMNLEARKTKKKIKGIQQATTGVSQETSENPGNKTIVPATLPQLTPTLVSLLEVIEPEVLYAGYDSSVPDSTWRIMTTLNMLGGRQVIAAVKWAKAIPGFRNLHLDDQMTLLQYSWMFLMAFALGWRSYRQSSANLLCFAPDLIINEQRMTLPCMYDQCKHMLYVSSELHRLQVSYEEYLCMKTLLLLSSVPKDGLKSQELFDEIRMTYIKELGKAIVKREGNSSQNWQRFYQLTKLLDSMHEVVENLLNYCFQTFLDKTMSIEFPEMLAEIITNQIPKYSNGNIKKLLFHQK
Procedure: as §1, §2, §3

[1] = agonist mode, luciferase production relative to DHT, hAR in CV-1 cells
[2] = antagonist mode, maximal inhibition of DHT-induced luciferase production, hAR in CV-1 cells
[3] = read-out: AR-wt Potency Antag, antagonist mode, Table 2

Row | SMILES | AR Agonist CV-1 Cells Efficacy (human AR) | AR Antagonist CV-1 Cells Efficacy (human AR) | EC50 (human AR) | IC50 (human AR) | IC50 (human AR; read-out: AR-wt Potency Antag) | AR Agonist CV-1 Cells Efficacy (human AR; [1]) | AR Antagonist CV-1 Cells Efficacy (human AR; [2]) | IC50 (human AR; [3]) | IC50 (GR)
1 | CC[C@@H]1COc2c(ccc3[nH]c(=O)cc(C(F)(F)F)c23)N1CC(F)(F)F [Compound 110, (3R)-3-Ethyl-2,3,4,7-tetrahydro-4-(2,2,2-trifluoroethyl)-10-(trifluoromethyl)-8H-[1,4]oxazino[2,3-f]quinolin-8-one] | 89% | na (key: na: not active (i.e. efficacy of <20 and potency of >10,000 nM for the cotransfection assay) | 0.6 nM | > 10000 nM | > 10000 nM |  |  |  | 
2 | C=CCN1c2ccc3[nH]c(=O)cc(C(F)(F)F)c3c2OC[C@H]1CC [Compound 114, (3R)-4-Allyl-3-ethyl-2,3,4,7-tetrahydro-10-(trifluoromethyl)-8H-[1,4]oxazino[2,3-f]quinolin-8-one] |  |  | 53 nM |  |  | 74% | na (not active (i.e. efficacy of <20 and potency of >10,000 nM for the cotransfection assay) | > 10000 nM | 5900 nM
3 | CC(C)[C@@H]1COc2c(ccc3[nH]c(=O)cc(C(F)(F)F)c23)N1CC(F)(F)Cl [Compound 124, (3R)-4-(2-Chloro-2,2-difluoroethyl)-2,3,4,7-tetrahydro-3-isopropyl-10-(trifluoromethyl)-8H-[1,4]oxazino[2,3-f]quinolin-8-one] |  |  | 2 nM |  |  | 70% | na (not active (i.e. efficacy of <20 and potency of >10,000 nM for the cotransfection assay) | > 10000 nM | 2400 nM
